# Data published in US11129782B2, “Derivatives of PPD useful for coloring hair and skin” (National University of Singapore, priority 2017, dated 2021).
# Values joined by “and” are separate entries in the source; they are usually repeats but may differ in a detail not shown here. Identical values can stand only once. Like-named read-outs stand apart in the source and are kept apart here.
# Experiments:
# [1] = Solubility observed when preparing dyes; assay type: physicochemical; conditions: water / organic solvents
# [2] = tested on: cysteine peptide (Ac-RFAACAA-COOH); assay: Direct Peptide Reactivity Assay, cysteine peptide; conditions: for % of Cysteine depletion, Avg / % of Cysteine depletion, Rep 2 / % of Cysteine depletion, Rep 3 / Reactivity Class: 1:10; for % of Cysteine depletion, Rep 1: peptide 0.02 mM : test chemical 0.2 mM (1:10); for Reactivity Class: cysteine
# Experimental: For cysteine DPRA, an additional step was performed.
# (§1) The mass spectrometric analysis was performed by use of a AB SCIEX QTRAP 5500 tandem mass spectrometry (MS/MS) system (AB SCIEX, Framingham, Mass., USA) operating in triple quadrupole positive mode (ESI+) equipped with an AB Sciex Turbo Ion Spray interface. Acquisition and analysis of data were performed with Analyst software ver. 1.6.2 (Applied Biosystems).
# [3] = tested on: lysine peptide (Ac-RFAAKAA-COOH); assay: Direct Peptide Reactivity Assay, lysine peptide; conditions: for % of Lysine depletion, Avg / % of Lysine depletion, Rep 2 / % of Lysine depletion, Rep 3 / Reactivity Class: 1:50; for % of Lysine depletion, Rep 1: peptide 0.02 mM : test chemical 1 mM (1:50); for Reactivity Class: lysine
# Experimental: as §1
# HaCaT cells = assay: In vitro cell cytotoxicity (MTT) assay on HaCaT cells; assay type: cell-based, human; conditions: for IC50: 72 h incubation, MTT
# Summary of the method: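 HaCaT keratinocytes seeded at 5×10^3/well, after 24 h exposed 72 h to test compounds serially diluted from 500 μM to 1.9 μM in 10% FBS DMEM. MTT (1 mg/ml, 4 h) read at 570 nm; viability expressed as percent of untreated control.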
# [4] = Skin permeation in vertical Franz diffusion cells; assay type: in vitro ADME, porcine; conditions: 8 h; for Penetration profile PPD vs derivatives (times less than PPD): ratio of PPD penetration to that of the compound; for recovery at 8 h, 1 % w/v: pig, read-out: % Parent compound Recovery (mean)
# Summary of the method: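 Dermatomed porcine ear skin (~1.0 mm, barrier checked by TEWL) in vertical Franz cells at 37 °C, 0.64 cm^2 area, PBS receptor, donor of 1% w/v solutions in argon-purged water (n=3). Receptor sampled over 8 h with mass balance, LCMS quantification; flux and permeability coefficients from steady-state Fick's law fits.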
# IL-8 = IL-8 ELISA on THP-1 cell supernatants; assay type: cell-based, human; conditions: preliminary ELISA, CV75
# Experimental: (§2) For cytokine profiling in THP-1, supernatants from wells were collected and then used for cytokine analysis by a Chemokine immunosorbent assay Bio-legend ELISA Max kit. The levels of available IL-8 protein from THP-1 cell supernatants was estimated using this kit which are regulated upon activation of THP-1 model. Surface receptor expression of human CD-86, CD-54, MHC-I and IL-T3 were analyzed by flow cytometry using standard BD FACS analyzer with PE and FITC fluorescent labeled antibodies from Biolegend and e Bioscience.
# (§3) In order to understand the effect of modified PPD hairdyes on THP-1 immune sensitization, a certain degree of Cytotoxicity at CV75% viable where 25% cell death is required before evaluation of supernatants in THP-1 models for expression of cytokine IL-8 and receptor expression of CD86, CD54, MHC-I and IL-T3 surface receptors upon treatment with standard PPD and modified hair dye compounds. Most allergens show a specific dose-dependent alteration of CD86 and/or CD54 expression or secretion of cytokine profiles. But depending on chemical, the alteration pattern may vary.
# [5] = tested on: cysteine and lysine peptides; assay: Direct Peptide Reactivity Assay, mean of cysteine and lysine depletion (FIG. 12)
# CD86 = CD86 surface expression on THP-1 by flow cytometry; assay type: cell-based, human
# Experimental: as §2, §3
# CD54 = CD54 surface expression on THP-1 by flow cytometry; assay type: cell-based, human
# Experimental: as §2, §3
# ILT3 = ILT3 surface expression on THP-1 by flow cytometry; assay type: cell-based, human; conditions: in comparison to DCNB
# Experimental: as §2, §3
# [6] = tested on: cysteine and lysine peptides
compound,measurement,setting,value
"Nc1ccc(Nc2ccc(N)cc2)cc1 [PPD derivative 1, 4,4′-Diaminodiphenylamine]",Solubility (in words),[1],showed solubility in a mixture of 10% methanol in water
same,"% of Cysteine depletion, Avg",[2]; 20 min,41.5%
same,"% of Cysteine depletion, Rep 2",[2]; 20 min,40.5%
same,"% of Cysteine depletion, Rep 3",[2]; 20 min,41.5%
same,"% of Cysteine depletion, Rep 1",[2]; 20 min,42.6%
same,"% of Cysteine depletion, Avg",[2]; 24 h,69.4%
same,"% of Cysteine depletion, Rep 2",[2]; 24 h,69.6%
same,"% of Cysteine depletion, Rep 3",[2]; 24 h,69.3%
same,"% of Cysteine depletion, Rep 1",[2]; 24 h,69.5%
same,Reactivity Class,[2]; 20 min,Moderate
same,Reactivity Class,[2]; 24 h,High
same,"% of Lysine depletion, Avg",[3]; 20 min,7.79%
same,"% of Lysine depletion, Rep 2",[3]; 20 min,6.48%
same,"% of Lysine depletion, Rep 3",[3]; 20 min,9.01%
same,"% of Lysine depletion, Rep 1",[3]; 20 min,7.89%
same,"% of Lysine depletion, Avg",[3]; 24 h,23.8%
same,"% of Lysine depletion, Rep 2",[3]; 24 h,28%
same,"% of Lysine depletion, Rep 3",[3]; 24 h,22.3%
same,"% of Lysine depletion, Rep 1",[3]; 24 h,21%
same,Reactivity Class,[3]; 20 min,Low
same,Reactivity Class,[3]; 24 h,Moderate
same,Fold increase in IC50 compared to PPD,HaCaT cells,~2 fold
same,IC50,HaCaT cells,49.3 µM
same,% Parent compound Penetrated (mean),[4]; 1% W/V applied,0.00314%
same,% Parent compound Recovery (mean),[4]; 1% W/V applied,93.85%
same,% converted to metabolite (mean),[4]; 1% W/V applied,0.0104%
same,Penetration profile PPD vs derivatives (times less than PPD),[4]; listed as PPD 1,51 and 51.6
same,IL-8 expression,IL-8,increased expression
same,Sensitizing potential predicted from mean peptide depletion,[5]; cysteine 1:10 / lysine 1:50 model,high sensitizing agents
"CCCCCCOC(=O)c1cc(Nc2ccc(N)cc2)ccc1N [PPD derivative 6, hexyl 2-amino-5-((4-aminophenyl)amino)benzoate]",Expression of CD86,CD86,not stimulated
same,Expression of CD54,CD54,not stimulated
same,IC50,"HaCaT cells; Homo sapiens, HaCaT, 72 h",10.5 µM
same,% Parent compound Penetrated (mean),[4]; 1% W/V applied,0.00015%
same,% converted to metabolite (mean),[4]; 1% W/V applied,0.01%
same,Permeation less than PPD,[4],about 2 order of magnitude
same,"recovery at 8 h, 1 % w/v",[4]; 1% W/V applied,95.4%
same,Penetration profile PPD vs derivatives (times less than PPD),[4],1080
same,IL-8 expression,IL-8,do not stimulate IL-8 expression
same,ILT3 (inhibitory receptor) expression,ILT3,increased
"Nc1ccc(Nc2ccc(Nc3ccc(Nc4ccc(N)cc4)cc3)cc2)cc1 [PPD derivative 8, 4,4′-Bis[(4-aminophenyl)amino]diphenylamine]",IC50,HaCaT cells,6.92 µM
same,IL-8 expression,IL-8,increased expression
same,Sensitizing potential predicted from mean peptide depletion,[6],high sensitizing agents
"Cc1ccc(NCc2ccc(-c3ccc(Nc4ccc(N)cc4)cc3)cc2)cc1 [PPD derivative 9, 4-Amino-4′-[(4-tolylaminomethyl)phenyl]diphenylamine]",IC50,HaCaT cells,6.8 µM
same,Mean peptide depletion,"[5]; mean of cysteine (1:10) and lysine (1:50), FIG. 12",17.9%
same,Sensitizing potential predicted from mean peptide depletion,[6],weak sensitizer
"CCCCCCOC(=O)c1cc(N)ccc1N [PPD derivative 15, Hexyl-2,5-diaminobenzoate]",Expression of CD86,CD86,not stimulated
same,Expression of CD54,CD54,not stimulated
same,Improvement of cell viability in comparison to PPD 4,HaCaT cells,about 5 times
same,IC50,"HaCaT cells; Homo sapiens, HaCaT, 72 h",160 µM
same,% Parent compound Penetrated (mean),[4]; 1% W/V applied,0.0001%
same,% converted to metabolite (mean),[4]; 1% W/V applied,0.0108%
same,Permeation less than PPD,[4],about 2 order of magnitude
same,"recovery at 8 h, 1 % w/v",[4]; 1% W/V applied,96.7%
same,Penetration profile PPD vs derivatives (times less than PPD),[4],1620
same,IL-8 expression,IL-8,do not stimulate IL-8 expression
same,ILT3 (inhibitory receptor) expression,ILT3,increased
